Assay results taken from ChEMBL document CHEMBL5108038, “Development of Inhibitors Targeting the V-Domain Ig Suppressor of T Cell Activation Signal Pathway” (J Med Chem, 2022).
One block for each compound: values may come before it.

What was measured:
[1] = target: T1, V-type immunoglobulin domain-containing suppressor of T-cell activation (Homo sapiens, UniProt Q9H7M9); experiment: Binding affinity to VISTA (unknown origin) assessed as dissociation constant by MST method
T1 sequence (Q9H7M9 whole entry): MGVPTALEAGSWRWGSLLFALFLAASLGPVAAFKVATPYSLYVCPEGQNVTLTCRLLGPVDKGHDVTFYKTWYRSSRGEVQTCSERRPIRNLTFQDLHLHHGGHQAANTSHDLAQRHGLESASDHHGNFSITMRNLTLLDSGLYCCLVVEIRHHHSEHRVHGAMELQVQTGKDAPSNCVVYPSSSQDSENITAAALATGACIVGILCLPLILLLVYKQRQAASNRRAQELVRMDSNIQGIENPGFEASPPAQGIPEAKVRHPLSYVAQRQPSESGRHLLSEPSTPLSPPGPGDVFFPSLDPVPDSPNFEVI

[2] = target: T2, V-type immunoglobulin domain-containing suppressor of T-cell activation (Homo sapiens) (UniProt Q9H7M9); experiment: Inhibition of recombinant VISTA signalling pathway (unknown origin) at 10 uM by HTRF assay relative to control
T2 sequence (whole entry): T1 sequence (Q9H7M9 whole entry)

[3] = target: Programmed cell death protein 1/Programmed cell death 1 ligand 1 (Homo sapiens) (UniProt Q15116+Q9NZQ7); experiment: Inhibition of recombinant PD-1/PD-L1 signalling route (unknown origin) at 10 uM by HTRF assay relative to control; assay type: protein-complex assay
[4] = Inhibition of PD-L1 in human PBMC; assay type: cell-based
[5] = Antitumor immunity in PBMC (unknown origin) assessed as inhibition of VSIG8 binding to VISTA; assay type: functional, cell-based
[6] = target: T3, V-set and immunoglobulin domain-containing protein 8 (Homo sapiens, UniProt P0DPA2); experiment: Binding affinity to human VSIG8 assessed as dissociation constant by MST method
T3 sequence (P0DPA2 whole entry): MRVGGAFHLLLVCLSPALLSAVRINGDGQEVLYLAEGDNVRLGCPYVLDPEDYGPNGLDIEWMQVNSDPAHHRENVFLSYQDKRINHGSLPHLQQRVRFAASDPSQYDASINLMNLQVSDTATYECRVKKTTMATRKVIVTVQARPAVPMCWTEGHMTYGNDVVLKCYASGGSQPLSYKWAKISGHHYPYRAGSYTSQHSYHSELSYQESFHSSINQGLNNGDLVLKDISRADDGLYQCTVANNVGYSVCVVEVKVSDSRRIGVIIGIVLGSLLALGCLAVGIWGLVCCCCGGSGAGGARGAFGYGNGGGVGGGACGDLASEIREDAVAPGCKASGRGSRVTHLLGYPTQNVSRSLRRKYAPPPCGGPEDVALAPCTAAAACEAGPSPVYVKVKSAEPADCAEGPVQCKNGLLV

[7] = Inhibition of VISTA/VSIG3 protein protein interaction (unknown origin) by FRET method; set-up: species or system Homo sapiens

Kd [1]: 647 nM
SMILES: Cc1ccc2nc(Nc3nc(O)cc(CSc4nnc(C)s4)n3)nc(C)c2c1

inhibition [2]: 81%
SMILES: C[C@@H](O)[C@H](NC(=O)C1(C(=O)N[C@@H](CC(N)=O)c2nc([C@H](N)CO)no2)CCCC1)C(=O)O
inhibition [3]: 92%

EC50 [4]: 66.1 nM
SMILES: C[C@@H](O)[C@H](NC(=O)N[C@@H](CC(N)=O)c1nc([C@H](N)CO)no1)C(=O)O

EC50 [5]: 1460 nM
Kd [6]: 6700 nM
SMILES: COc1cc(NC(=O)Nc2c(-c3ccncc3)[nH]c3ccc(Cl)cc23)cc(OC)c1

IC50 [7]: 4800 nM
SMILES: CN(C)c1n/c(=N\Cc2ccco2)ss1
